Reference: ChEMBL document CHEMBL1127331, “Pyridobenzoxazepine and pyridobenzothiazepine derivatives as potential central nervous system agents: synthesis and neurochemical study” (J Med Chem, 1994)

Legend:
Rattus norvegicus [1] = species on record: Rattus norvegicus; assay: animal or person; details: sc, read-out: Inhibition
Description: (§1) Inhibitory activity in apomorphine antagonism test at a dose of 20 mg/kg, sc

D(1A) dopamine receptor = D(1A) dopamine receptor (Rattus norvegicus, UniProt P18901)
Description: Binding affinity against dopamine receptor D1

[2] = biological target: Serotonin 2 (5-HT2) receptor (Rattus norvegicus, UniProt P30994+P08909+P14842)
Description: Binding affinity against serotonin 5-hydroxytryptamine 2 receptor

[3] = biological target: Muscarinic acetylcholine receptor
Description: Binding affinity against muscarinic (M) receptor

Rattus norvegicus [4] = species on record: Rattus norvegicus; assay: animal or person; details: sc
Description: as §1

D(1A) dopamine receptor, sequence (P18901 whole entry): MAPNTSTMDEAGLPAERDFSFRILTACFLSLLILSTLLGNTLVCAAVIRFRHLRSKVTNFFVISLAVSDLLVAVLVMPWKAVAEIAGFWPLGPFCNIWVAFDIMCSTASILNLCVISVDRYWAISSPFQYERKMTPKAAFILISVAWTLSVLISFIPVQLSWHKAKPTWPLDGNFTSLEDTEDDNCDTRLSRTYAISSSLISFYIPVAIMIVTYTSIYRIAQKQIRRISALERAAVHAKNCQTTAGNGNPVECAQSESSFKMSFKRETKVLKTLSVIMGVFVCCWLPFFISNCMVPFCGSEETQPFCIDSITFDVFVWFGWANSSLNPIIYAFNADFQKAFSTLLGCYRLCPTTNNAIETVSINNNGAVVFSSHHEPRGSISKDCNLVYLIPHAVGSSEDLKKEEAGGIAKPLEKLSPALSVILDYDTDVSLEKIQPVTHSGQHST

Row | Ki (D(1A) dopamine receptor) [nM] | -Log Ki [2] | -Log Ki [3] | Compound | inhibition in vivo at 20 mg/kg (Rattus norvegicus [1]) [%] | ED50 (Rattus norvegicus [4]) [mg/kg]
1 | 302 | 7.19 | 5.65 | CN1CCN(C2=Nc3cc(Cl)ccc3Oc3ncccc32)CC1 | 0 | 
2 |  | 4.65 | 6.07 | CN1CCN(C2=Nc3cccnc3Oc3ccccc32)CC1 | 0 | 
3 | 1070 | 7.35 | 5.86 | CN1CCN(C2=Nc3cccnc3Oc3ccc(Cl)cc32)CC1 | 100 | 
4 | 15500 | 6.55 | 6.68 | CN1CCN(C2=Nc3cnccc3Sc3ccccc32)CC1 | 0 | 
5 | 759 | 7.01 | 5.42 | Cc1ccc2c(c1)N=C(N1CCN(C)CC1)c1cccnc1O2 | 0 | 
6 | 676 | 7.35 | 5.75 | CN1CCN(C2=Nc3cccnc3Sc3ccc(Cl)cc32)CC1 | 100 | 
7 | 8130 | 5.94 | 6.13 | CN1CCN(C2=Nc3cccnc3Sc3ccccc32)CC1 | 0 | 
8 |  | 9.23 |  | CN1CCN(C2=Nc3ccccc3Sc3ccc(Cl)cc32)CC1 [CLOTHIAPINE] | 100 | 0.72
9 |  |  |  | CN1CCN(C2=Nc3cc(Cl)ccc3Nc3ccccc32)CC1 [CLOZAPINE] | 0 | 
10 |  | 8.41 |  | CN1CCN(C2=Nc3cc(F)ccc3Cc3ccccc32)CC1 [FLUPERLAPINE] |  | 
11 |  |  |  | O=C(CCCN1CCC(O)(c2ccc(Cl)cc2)CC1)c1ccc(F)cc1 [HALOPERIDOL] | 100 | 0.14
12 |  | 8.38 |  | CN1CCN(C2=Nc3cc(Cl)ccc3Sc3ccccc32)CC1 [ISOCLOTHIAPINE] |  | 
13 |  |  |  | CN1CCN(C2=Nc3ccccc3Nc3ccc(Cl)cc32)CC1 [ISOCLOZAPINE] |  | 1.7

Row | Compound | Ki (D(1A) dopamine receptor) [nM] | -Log Ki [2] | -Log Ki [3] | inhibition in vivo at 20 mg/kg (Rattus norvegicus [1]) [%] | ED50 (Rattus norvegicus [4]) [mg/kg]
14 | CN1CCN(C2=Nc3ccccc3Oc3ncccc32)CC1 | 2400 | 5.85 | 5.47 | 0 | 
15 | CN1CCN(C2=Nc3ccccc3Sc3ncccc32)CC1 | 1620 | 6.29 | 5.61 | 0 | 
